# Results: patent publication US5066658A, “Substituted hydroxyureas” (Ortho Pharmaceutical Corporation, priority 1990, dated 1991)
# System: Arachidonate-Induced Bronchospasm (lipoxygenase)
# Assay: Pulmonary Mechanics Assay: arachidonate-induced bronchospasm with indomethacin (SRS-A response, indicative of lipoxygenase inhibition)
# Type: in vivo, male Hartley guinea pigs
# Conditions: Cavia porcellus, ID dosing, 25 mg/kg, guinea pig, read-out: Inhibition of Arachidonate-Induced Bronchospasm (ID Dosing), % Inh. with Indomethacin
# Protocol: (§1) The bronchodilating activity of the compounds was tested in a pulmonary mechanics assay. Basically, male Hartley guinea pigs (about 400-500 g) were anesthetized with urethane (2 g/kg, i.p.) and placed in a whole body Plethysmograph. Cannulations of a jugular vein and carotid artery were performed for compound administration and monitoring blood pressure, respectively. The trachea was cannulated for respiration at a constate volume via a miniature starling pump. A Validyne differential pressure transducer (±20 cm H2 O) sensed transpleural pressure via a 15 gauge needle inserted into the pleural cavity and a sidearm from the tracheal cannula. Tidal volume was sensed by another Validyne differential pressure transducer (±2 cm H2 O) from pressure changes inside the plethysmograph. An on-line Buxco pulmonary mechanics computer calculated air flow, dynamic lung compliance and lung resistance. The values were recorded on a print-out.
# (§2) The guinea pigs were pretreated with succinyl choline (1.2 mg/kg, i.v.) to arrest spontaneous respiration. A control challenge of arachidonic acid (0.5-1.0 mg/kg, i.v.) was administered, and the animals were then dosed with the test compound by various routes. At least 10 minutes were allowed to expire between arachidonic acid challenges. A second challenge was given and compared to the control response. This comparison was indicative of cyclooxygenase inhibition. Indomethacin (10 mg/kg, i.v.) was administered immediately after the second challenge. A third challenge of a higher dose of arachidonic acid (5-10 mg/kg, i.v.) was given. This response was induced by SRS-A and compared to the responses elicited by a separate control group of animals. Activity was indicative of lipoxygenase inhibition. Propranolol (0.005 mg/kg. i.v.) may be given prior to the third challenge to enhance the response to SRS-A.
# (§3) Bronchoconstriction induced by arachidonic acid with or without indomethacin was expressed as maximum percent change in dynamic lung compliance (Cdyn) and maximum percent increase in lung resistance (RL). Each guinea pig served as its own control for cyclooxygenase evaluation. The results are shown in Table I and are expressed as the percent inhibition of control.
row,Compound,inhibition in vivo at 25 mg/kg [%]
1,"COc1ccc(CCN(C)C(=O)N(C)O)cc1OC [Example 53, N-[2-(3,4-Dimethyoxyphenyl)ethyl]-N'-hydroxy-N,N'-dimethylurea]",71

# Same assay, conditions: Cavia porcellus, ID dosing, 50 mg/kg, guinea pig, read-out: Inhibition of Arachidonate-Induced Bronchospasm (ID Dosing), % Inh. with Indomethacin
row,Compound,inhibition in vivo at 50 mg/kg [%]
1,"CN(O)C(=O)NCCc1ccc2c(c1)OCO2 [Example 43, N-[2-(3,4-Methylenedioxy)phenyl)ethyl-N'-hydroxy-N'-methylurea]",< 20
2,"COc1cccc(CCNC(=O)N(C)O)c1OC [Example 44, N-[2-(2,3-Dimethoxyphenyl)ethyl]-N'-hydroxy-N'-methylurea]",58
3,"CN(O)C(=O)NCCc1ccc(Cl)c(Cl)c1 [Example 50, N-[2-(3,4-Dichlorophenyl)ethyl]-N'-hydroxy-N'-methylurea]",< 20
4,C=CCOc1ccc(CCNC(=O)N(C)O)cc1OC [Example 55],56
5,"COc1ccc(C2C3C=CC(C3)C2NC(=O)N(C)O)cc1OC (stereo not drawn) [Example 58, N-[trans-3-(3,4-Dimethoxyphenyl)bicyclo[2.2.1]-5-hepten-2-yl]-N'-hydroxy-N'-methylurea]",68
6,"COc1ccc(CCCN(CCCc2ccc(OC)c(OC)c2)C(=O)N(C)O)cc1OC [Example 63, N,N-Bis-[3-(3,4-dimethoxyphenyl)propyl]-N'-hydroxy-N'-methylurea]",21
7,"COc1ccc(CCCNC(=O)N(C)O)cc1OC [Example 65, N-[3-(3,4-Dimethoxyphenyl)propyl]-N'-hydroxy-N'-methylurea]",59
8,"COc1cc(CCNC(=O)N(C)O)ccc1OCc1ccccc1 [Example 68, N-[2-(4-Benzyloxy-3-methoxyphenyl)ethyl]-N'-hydroxy-N'-methylurea]",28
9,"COc1cc(CCNC(=O)N(C)O)ccc1O [Example 70, N-[2-(4-Hydroxy-3-methoxyphenyl)ethyl]-N'-hydroxy-N'-methylurea]",< 20
10,"COc1ccc(CCNC(=O)N(C)O)cc1O [Example 71, N-[2-(3-Hydroxy-4-methoxyphenyl)ethyl]-N'-hydroxy-N'-methylurea]",< 20

# Same assay, conditions: Cavia porcellus, IV dosing, 15 mg/kg, guinea pig, read-out: Inhibition of Arachidonate-Induced Bronchospasm (IV Dosing), % Inh. with Indomethacin
row,Compound,inhibition in vivo at 15 mg/kg [%]
1,"COc1ccc(CCN(C)C(=O)N(C)O)cc1OC [Example 53, N-[2-(3,4-Dimethyoxyphenyl)ethyl]-N'-hydroxy-N,N'-dimethylurea]",51
2,C=CCOc1ccc(CCNC(=O)N(C)O)cc1OC [Example 55],83
3,"COc1ccc(CCCNC(=O)N(C)O)cc1OC [Example 65, N-[3-(3,4-Dimethoxyphenyl)propyl]-N'-hydroxy-N'-methylurea]",89

# Biological target: T1, 5-lipoxygenase (Rattus norvegicus, UniProt P12527)
# T1 construct: The cell-free homogenate was prepared by sonication of the cells followed by centrifugation at 40,000 xg; endogenous in cells; host or cells: RBL-1 (rat basophilic leukemia) cells, 40,000 xg supernatant of the sonicate
# T1 sequence (P12527 1-673): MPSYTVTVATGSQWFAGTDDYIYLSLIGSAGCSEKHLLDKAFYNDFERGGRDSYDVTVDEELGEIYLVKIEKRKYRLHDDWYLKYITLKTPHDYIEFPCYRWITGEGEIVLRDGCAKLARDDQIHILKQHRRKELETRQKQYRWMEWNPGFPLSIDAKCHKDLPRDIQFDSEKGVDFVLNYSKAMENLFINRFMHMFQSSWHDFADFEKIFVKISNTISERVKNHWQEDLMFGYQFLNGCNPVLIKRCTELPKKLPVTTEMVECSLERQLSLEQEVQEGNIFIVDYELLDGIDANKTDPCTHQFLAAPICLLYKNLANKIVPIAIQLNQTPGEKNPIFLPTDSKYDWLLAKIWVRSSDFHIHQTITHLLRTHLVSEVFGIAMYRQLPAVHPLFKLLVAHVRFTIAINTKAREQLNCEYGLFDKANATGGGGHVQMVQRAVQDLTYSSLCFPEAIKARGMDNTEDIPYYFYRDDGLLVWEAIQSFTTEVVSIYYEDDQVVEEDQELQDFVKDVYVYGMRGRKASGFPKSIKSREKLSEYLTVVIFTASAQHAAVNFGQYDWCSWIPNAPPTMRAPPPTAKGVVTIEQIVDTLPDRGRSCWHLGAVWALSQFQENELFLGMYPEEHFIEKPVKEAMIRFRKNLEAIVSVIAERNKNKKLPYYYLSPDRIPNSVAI
# Assay: Inhibition of 5-lipoxygenase in cell-free homogenate of rat basophilic leukemia (RBL-1) cells
# Type: biochemical
# Conditions: 3 μM; RBL-1 cell-free homogenate; read-out: Inhibition of 5-Lipoxygenase, % Inh. @ 3 μM
# Protocol: The inhibition of 5-lipoxygenase was tested in a cell-free homogenate by the procedure of B. Jakschik et al., Biochem.Biophys.Res.Comm. 95, 103 (1980). Basically, rat basophilic leukemia cells (RBL-1 cells) were maintained in culture in a suitable medium, and were collected by centrifugation prior to assay. The cell-free homogenate was prepared by sonication of the cells followed by centrifugation at 40,000 xg. The CaCl2 dependent production of lipoxygenase products from ^14 C-arachidonic acid in the 40,000 xg supernatant was monitored in the presence of buffer (or other vehicle) or drug. Products were isolated by acidification and extraction, followed by thin layer chromatography. Radioactive areas corresponding to the authentic lipoxygenase products were quantitated by liquid scintillation counting. Data was reported as the IC50, the concentration causing 50% inhibition of the generation of lipoxygenase products. The results are shown it Table I as the percent inhibition at 3 μM or the amount of compound necessary to cause 50% inhibition.
row,Compound,inhibition at 3 µM [%]
1,"CN(O)C(=O)NCCc1ccc2c(c1)OCO2 [Example 43, N-[2-(3,4-Methylenedioxy)phenyl)ethyl-N'-hydroxy-N'-methylurea]",65
2,"COc1cccc(CCNC(=O)N(C)O)c1OC [Example 44, N-[2-(2,3-Dimethoxyphenyl)ethyl]-N'-hydroxy-N'-methylurea]",33
3,"CN(O)C(=O)NCCc1ccc(Cl)c(Cl)c1 [Example 50, N-[2-(3,4-Dichlorophenyl)ethyl]-N'-hydroxy-N'-methylurea]",59
4,"COc1ccc(CCN(C)C(=O)N(C)O)cc1OC [Example 53, N-[2-(3,4-Dimethyoxyphenyl)ethyl]-N'-hydroxy-N,N'-dimethylurea]",0
5,"COc1ccc(CCCN(CCCc2ccc(OC)c(OC)c2)C(=O)N(C)O)cc1OC [Example 63, N,N-Bis-[3-(3,4-dimethoxyphenyl)propyl]-N'-hydroxy-N'-methylurea]",76
6,"COc1ccc(CCCNC(=O)N(C)O)cc1OC [Example 65, N-[3-(3,4-Dimethoxyphenyl)propyl]-N'-hydroxy-N'-methylurea]",19
7,"COc1ccc(CCNC(=O)N(C)O)cc1O [Example 71, N-[2-(3-Hydroxy-4-methoxyphenyl)ethyl]-N'-hydroxy-N'-methylurea]",5

# Continued, values first:
row,inhibition at 3 µM [%],Compound
1,42,C=CCOc1ccc(CCNC(=O)N(C)O)cc1OC [Example 55]
2,37,"COc1ccc(C2C3C=CC(C3)C2NC(=O)N(C)O)cc1OC (stereo not drawn) [Example 58, N-[trans-3-(3,4-Dimethoxyphenyl)bicyclo[2.2.1]-5-hepten-2-yl]-N'-hydroxy-N'-methylurea]"
3,69,"COc1cc(CCNC(=O)N(C)O)ccc1OCc1ccccc1 [Example 68, N-[2-(4-Benzyloxy-3-methoxyphenyl)ethyl]-N'-hydroxy-N'-methylurea]"
4,39,"COc1cc(CCNC(=O)N(C)O)ccc1O [Example 70, N-[2-(4-Hydroxy-3-methoxyphenyl)ethyl]-N'-hydroxy-N'-methylurea]"

# System: Arachidonate-Induced Bronchospasm (cyclooxygenase)
# Assay: Pulmonary Mechanics Assay: arachidonate-induced bronchospasm without indomethacin (indicative of cyclooxygenase inhibition)
# Type: in vivo, male Hartley guinea pigs
# Conditions: Cavia porcellus, ID dosing, 25 mg/kg, guinea pig, read-out: Inhibition of Arachidonate-Induced Bronchospasm (ID Dosing), % Inh. without Indomethacin
# Protocol: as §1, §2, §3
row,Compound,inhibition in vivo at 25 mg/kg [%]
1,"COc1ccc(CCN(C)C(=O)N(C)O)cc1OC [Example 53, N-[2-(3,4-Dimethyoxyphenyl)ethyl]-N'-hydroxy-N,N'-dimethylurea]",52

# Same assay, conditions: Cavia porcellus, ID dosing, 50 mg/kg, guinea pig, read-out: Inhibition of Arachidonate-Induced Bronchospasm (ID Dosing), % Inh. without Indomethacin
row,Compound,inhibition in vivo at 50 mg/kg [%]
1,"CN(O)C(=O)NCCc1ccc2c(c1)OCO2 [Example 43, N-[2-(3,4-Methylenedioxy)phenyl)ethyl-N'-hydroxy-N'-methylurea]",< 20
2,"COc1cccc(CCNC(=O)N(C)O)c1OC [Example 44, N-[2-(2,3-Dimethoxyphenyl)ethyl]-N'-hydroxy-N'-methylurea]",< 20
3,"CN(O)C(=O)NCCc1ccc(Cl)c(Cl)c1 [Example 50, N-[2-(3,4-Dichlorophenyl)ethyl]-N'-hydroxy-N'-methylurea]",< 20
4,C=CCOc1ccc(CCNC(=O)N(C)O)cc1OC [Example 55],-68
5,"COc1ccc(C2C3C=CC(C3)C2NC(=O)N(C)O)cc1OC (stereo not drawn) [Example 58, N-[trans-3-(3,4-Dimethoxyphenyl)bicyclo[2.2.1]-5-hepten-2-yl]-N'-hydroxy-N'-methylurea]",35
6,"COc1ccc(CCCN(CCCc2ccc(OC)c(OC)c2)C(=O)N(C)O)cc1OC [Example 63, N,N-Bis-[3-(3,4-dimethoxyphenyl)propyl]-N'-hydroxy-N'-methylurea]",< 20
7,"COc1ccc(CCCNC(=O)N(C)O)cc1OC [Example 65, N-[3-(3,4-Dimethoxyphenyl)propyl]-N'-hydroxy-N'-methylurea]",52
8,"COc1cc(CCNC(=O)N(C)O)ccc1OCc1ccccc1 [Example 68, N-[2-(4-Benzyloxy-3-methoxyphenyl)ethyl]-N'-hydroxy-N'-methylurea]",< 20
9,"COc1cc(CCNC(=O)N(C)O)ccc1O [Example 70, N-[2-(4-Hydroxy-3-methoxyphenyl)ethyl]-N'-hydroxy-N'-methylurea]",< 20
10,"COc1ccc(CCNC(=O)N(C)O)cc1O [Example 71, N-[2-(3-Hydroxy-4-methoxyphenyl)ethyl]-N'-hydroxy-N'-methylurea]",77

# Same assay, conditions: Cavia porcellus, IV dosing, 15 mg/kg, guinea pig, read-out: Inhibition of Arachidonate-Induced Bronchospasm (IV Dosing), % Inh. without Indomethacin
row,Compound,inhibition in vivo at 15 mg/kg [%]
1,"COc1ccc(CCN(C)C(=O)N(C)O)cc1OC [Example 53, N-[2-(3,4-Dimethyoxyphenyl)ethyl]-N'-hydroxy-N,N'-dimethylurea]",79
2,C=CCOc1ccc(CCNC(=O)N(C)O)cc1OC [Example 55],56
3,"COc1ccc(CCCNC(=O)N(C)O)cc1OC [Example 65, N-[3-(3,4-Dimethoxyphenyl)propyl]-N'-hydroxy-N'-methylurea]",86
